In patent US20110288036A1, “Methods for Treating or Preventing Vascular Graft Failure” (priority 2010, published 2011):

Key:
MEK1 = target: T1, MEK1 (Homo sapiens, UniProt Q02750); test: MEK1 radiometric kinase assay; type: biochemical; settings: peptide 100 μM
T1 construct: purchased Millipore (KinaseProfiler service)
Excerpt: (§1) A commercial radiometric assay service was used to test the specificity and potency of MMI-0100 ([…]; SEQ ID NO: 1) by measuring its half maximal inhibitory concentrations (IC50). This quantitative assay measures how much MK2 inhibitor (MMI-0100; […] (SEQ ID NO: 1)) is needed to inhibit 50% of a given biological process or component of a process (i.e., an enzyme, cell, or cell receptor). Specifically, in these assays, a positively charged substrate is phosphorylated with a radiolabeled phosphate group from an ATP if the kinase is not inhibited by an inhibitor peptide. The positively charged substrate then is attracted to a negatively charged filter membrane, quantified with a scintillation counter, and compared to a 100% activity control. ATP concentrations within 15 μM of the apparent Km for ATP were chosen since an ATP concentration near the Km may allow for the kinases to have the same relative amount of phosphorylation activity. The individual conditions for each radiometric assay are as follows.
The reaction was initiated by adding the MgATP. After incubation for 40 minutes at room temperature, 5 μl of this incubation mix was used to initiate the MAPK2 radiometric assay whose reaction condition was the same as the condition for p38 MAPK assay described above.
(§2) IC50 values for inhibitor peptides were determined using Millipore's IC50 Profiler Express service. […]

MKK3 = MKK3 (Homo sapiens, UniProt P46734); test: MKK3 kinase activity (data not shown); type: biochemical; settings: at concentration inhibiting greater than 95% of MK2 activity
Excerpt: as §1, with “The individual conditions for each radiometric assay are as follows.” left out
as §2
In order to determine the level of specificity for inhibiting MK2, the effect of MMI-0100 ([…]; SEQ ID NO: 1) on other kinases within the MAPK family and within the p38MAPK pathway was evaluated at concentrations of MMI-0100 ([…]; SEQ ID NO: 1) that inhibit greater than 95% of MK2 activity in vitro. […]

[1] = test system: human smooth muscle cell (SMC); test: MTS cell proliferation assay, smooth muscle cells; type: cell-based; settings: pre-treatment 20 ng/ml TNF-α
Experimental: Primary human aortic endothelial cells (HAEC) and primary human aortic smooth muscle cells (HASMC) were obtained from Invitrogen; primary human coronary artery endothelial cells (HCAEC) were obtained from Lonza.
All cultures were maintained in 25 cm^2 polystyrene tissue culture flasks in a 37° C., 5% CO2/95% air environment, with cell culture media refreshed every other day. All cells were seeded at a density of 20,000˜30,000 cells/cm^2, as required by the specific experiment, and allowed to grow to 80-90% confluence before being harvested/passaged. Only cells from early passages (numbers 2-8) were utilized in experiments.
The CellTiter 96® AQueous Non-Radioactive Cell Proliferation Assay (Promega) was used to assess drug effects on cell proliferation according to the manufacturer's instructions. Briefly, HAECs and HASMCs from early passages were grown to 80-90% confluence in 25 cm^2 tissue culture flasks in a 37° C./5% CO2 incubator prior to harvest. 200 μl of each type of cell suspension (at 20,000 cells/cm^2) was seeded onto separate 96-well plates to yield an approximate 60% confluence per well. Cells were allowed to adhere to the plate surface overnight, followed by addition of 20 ng/ml of TNF-α to stimulate production of inflammatory agents. After a 4-6 hour incubation period, MMI-0100 peptide drug ([…]; SEQ ID NO: 1) was added and cells incubated for another 20-24 hours. Each well was then supplemented with 100 μl of fresh medium and 20 μl of CellTiter 96® AQueous One Solution Reagent and incubated for an additional 1.5-2 hours prior to measuring absorbance of each well at 490 nm with a SoftMax®-equipped plate reader.
In order to determine the effect of pharmacological doses of MMI-0100 ([…]; SEQ ID NO: 1) on human endothelial cell (EC) and smooth muscle cell (SMC) proliferation, human EC and SMC cultures were treated with three concentrations (0.25 mM, 0.5 mM, and 1 mM) of MMI-0100 ([…] (SEQ ID NO: 1)) following pre-treatment with TNF-α.

[2] = test system: mouse lung endothelial cells (MLEC); test: Murine endothelial cell proliferation by direct cell counting; type: cell-based; settings: physiological doses
Excerpt: Primary cultures of mouse lung endothelial cells (MLEC) were isolated as previously described (Ackah, E. et al., J. Clin Invest., 2005, 115(8): 2119-27; Muto, A. et al., J. Exp. Med., 2011, 208(3): 561-575). Mouse lung endothelial cells (MLECs) were isolated from 3-week-old wild type mice. Briefly, mice were euthanized with an overdose of ketamine/xylazine and the lungs excised, minced, and digested with 0.1% collagenase in RPMI medium. The digest was homogenized by passing multiple times through a 14-gauge needle, filtered through a 150-μm tissue sieve, and the cell suspension was plated on 0.1% gelatin-coated dishes. Endothelial cells were then isolated by immunoselection with PECAM-1- and ICAM-2-conjugated magnetic beads. After immunoselection with magnetic beads, endothelial cells were immortalized with polyoma middle T-antigen. Isolated MLEC were maintained with EBM-2/EGM-2 MV SingleQuot® Kit Supplement & Growth Factors (Lonza) containing 15% fetal bovine serum. Cell proliferation in MLEC was measured at 24 and 72 hours after MMI-0100 treatment by direct cell counting after trypsin treatment.

[3] = test system: mouse lung endothelial cells (MLEC); test: Murine endothelial cell apoptosis, annexin V flow cytometry; type: cell-based; settings: 24 hours; any dose
Experimental: The apoptotic effect of MMI-0100 ([…]; SEQ ID NO: 1) on mouse lung endothelial cells (MLEC) was measured at 24 hours after MMI-0100 ([…]; SEQ ID NO: 1) treatment. MLEC were removed from the tissue culture plate by trypsin, and re-suspended at a concentration of 1.0×10^6 cells/ml. Apoptotic cells were detected by AlexaFluor® 488 annexin V/Dead Cell Apoptosis Kit (Invitrogen) using flow cytometry sorting analysis.

MKK3, sequence (P46734 whole entry, species assumed): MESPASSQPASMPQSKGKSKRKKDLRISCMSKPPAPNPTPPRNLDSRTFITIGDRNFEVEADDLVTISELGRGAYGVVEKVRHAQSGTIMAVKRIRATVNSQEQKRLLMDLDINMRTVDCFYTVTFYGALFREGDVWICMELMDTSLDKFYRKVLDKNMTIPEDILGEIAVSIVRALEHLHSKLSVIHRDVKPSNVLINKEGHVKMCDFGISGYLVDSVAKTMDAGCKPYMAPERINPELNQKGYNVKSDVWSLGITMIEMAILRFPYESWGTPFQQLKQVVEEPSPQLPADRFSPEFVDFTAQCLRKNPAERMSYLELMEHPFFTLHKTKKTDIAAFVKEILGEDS

Sequence: YARAAARQARAKALARQLGVAA [MMI-0100]
- Percent Activity, MEK1 (MEK1): 68%
- MKK3 activity (MKK3): no reduction
- SMC proliferation vs TNF-α alone control ([1]; 0.25 mM): slightly increased cell proliferation
- increase in SMC proliferation vs TNF-α alone control ([1]; 0.5 mM): 12%
- increase in SMC proliferation vs TNF-α alone control ([1]; 1 mM): 7%
- murine EC proliferation [2]: did not induce significant murine EC proliferation
- EC apoptosis [3]: did not induce EC apoptosis at any dose
